Columns and labels:
[1] = test system: iBMECs derived from 610B1 strain; assay: Test for permeability of FD4 or LY, 610B1 strain; format: cell-based, human; conditions: 60 minutes, day 10 of differentiation
Procedure: (§1) FD4 or LY permeability was tested on Matrigel-iBMECs and LN221F-iBMECs derived from each of 610B1 or 648A1 strain. The number of samples was 6. On day 10 of differentiation, the culture medium was replaced with a transport buffer (HBSS containing 10 mM HEPES solution), and the cells were cultured at 37° C. for 20 minutes. The transport buffer containing 1 mg/mL FD4 or 300 μM LY was added to the apical side. After incubation at 37° C. for 60 minutes, 100 μL of the solution was collected from the basolateral side. The volume of transport buffer was 300 μL on the apical side and 800 μL on the basal side. The fluorescence intensity of FD4 or LY was measured with a Synergy HTX multimode plate reader and analyzed by Gen5 data analysis software.

[2] = test system: iBMECs derived from 610B1 strain; assay: Relative TEER values of iBMECs induced and differentiated on each coating layer (day 10 of differentiation); format: cell-based, human; conditions: for TEER value compared with iBMECs induced and differentiated on Matrigel: coating 1 μg/cm^2, FIG. 2
Procedure: A coating layer was formed using each of the above-described coating agents. Matrigel was diluted 30-fold with a maintenance medium for human iPS cells on ice, poured onto a well plate, and allowed to stand at 37° C. for 30 minutes or longer to form a coating layer. FBN, VTN-N, LN221F, LN411F, or LN511F was diluted with PBS so as to be 1 μg/cm^2, poured onto a well plate, and allowed to stand at 37° C. for 1 hour to 2 hours to form a coating layer. In addition, a mixture of Fibronectin and Collagen type IV was diluted with PBS so as to be 100 μg/mL and 400 μg/mL, respectively, poured onto a Transwell insert, and allowed to stand at 37° C. for 2 hours or longer to form a coating layer.
FIG. 1 is a scheme illustrating a protocol for differentiating human iPS cells into iBMECs. […] The differentiation induction was started in a state in which at the time of passage, the cells were seeded on a culture dish coated with each coating agent and cultured in StemSure hPSC medium containing […] FGF2 until the proportion of undifferentiated colonies reached about 60 to 70% (day 0 of differentiation). […]
TEER values of iBMECs (on day 10 of differentiation) derived from 610B1 strain, which cells had been induced and differentiated on Matrigel or FBN, VTN-N, LN221F, LN411F, or LN511F, were measured. The number of samples was 3, and relative TEER values of iBMECs induced and differentiated on FBN, VTN-N, LN221F, LN411F, or LN511F were determined based on the TEER values of iBMECs induced and differentiated on Matrigel (hereinafter, also referred to as “Matrigel-iBMECs”). In addition, for each of 610B1 strain or 648A1 strain, the TEER values of Matrigel-iBMECs or iBMECs induced and differentiated on LN221F (hereinafter, also referred to as “LN221F-iBMECs”) were measured from day 1 after seeding (day 9 of differentiation) to day 10 after seeding (day 18 of differentiation). The number of samples was set to 6, and the time-course change of the TEER values was determined. The TEER values were measured using a Millicell ERS-2 (chopstick type) according to the attached instructions. […]

[3] = test system: iBMECs derived from 648A1 strain; assay: Time-course change in TEER values, 648A1 strain; format: cell-based, human; conditions: FIG. 4
Procedure: (§2) A coating layer was formed using each of the above-described coating agents. Matrigel was diluted 30-fold with a maintenance medium for human iPS cells on ice, poured onto a well plate, and allowed to stand at 37° C. for 30 minutes or longer to form a coating layer. FBN, VTN-N, LN221F, LN411F, or LN511F was diluted with PBS so as to be 1 μg/cm^2, poured onto a well plate, and allowed to stand at 37° C. for 1 hour to 2 hours to form a coating layer. In addition, a mixture of Fibronectin and Collagen type IV was diluted with PBS so as to be 100 μg/mL and 400 μg/mL, respectively, poured onto a Transwell insert, and allowed to stand at 37° C. for 2 hours or longer to form a coating layer. […]
(§3) TEER values of iBMECs (on day 10 of differentiation) derived from 610B1 strain, which cells had been induced and differentiated on Matrigel or FBN, VTN-N, LN221F, LN411F, or LN511F, were measured. The number of samples was 3, and relative TEER values of iBMECs induced and differentiated on FBN, VTN-N, LN221F, LN411F, or LN511F were determined based on the TEER values of iBMECs induced and differentiated on Matrigel (hereinafter, also referred to as “Matrigel-iBMECs”). […] The number of samples was set to 6, and the time-course change of the TEER values was determined. The TEER values were measured using a Millicell ERS-2 (chopstick type) according to the attached instructions. […]

BCRP = target: T1, BCRP (Homo sapiens, UniProt Q9UNQ0); assay: Substrate uptake test, BCRP function (Hoechst 33342 with or without Ko 143); format: cell-based; conditions: 10 μM Hoechst 33342, 20 μM Ko 143, 60 minutes at 37° C., FIG. 10
T1 construct: endogenous in cells; host or cells: Matrigel-iBMECs or LN221F-iBMECs derived from 610B1 strain (iPS cells), day 10 of differentiation
T1 sequence (Q9UNQ0 1-655): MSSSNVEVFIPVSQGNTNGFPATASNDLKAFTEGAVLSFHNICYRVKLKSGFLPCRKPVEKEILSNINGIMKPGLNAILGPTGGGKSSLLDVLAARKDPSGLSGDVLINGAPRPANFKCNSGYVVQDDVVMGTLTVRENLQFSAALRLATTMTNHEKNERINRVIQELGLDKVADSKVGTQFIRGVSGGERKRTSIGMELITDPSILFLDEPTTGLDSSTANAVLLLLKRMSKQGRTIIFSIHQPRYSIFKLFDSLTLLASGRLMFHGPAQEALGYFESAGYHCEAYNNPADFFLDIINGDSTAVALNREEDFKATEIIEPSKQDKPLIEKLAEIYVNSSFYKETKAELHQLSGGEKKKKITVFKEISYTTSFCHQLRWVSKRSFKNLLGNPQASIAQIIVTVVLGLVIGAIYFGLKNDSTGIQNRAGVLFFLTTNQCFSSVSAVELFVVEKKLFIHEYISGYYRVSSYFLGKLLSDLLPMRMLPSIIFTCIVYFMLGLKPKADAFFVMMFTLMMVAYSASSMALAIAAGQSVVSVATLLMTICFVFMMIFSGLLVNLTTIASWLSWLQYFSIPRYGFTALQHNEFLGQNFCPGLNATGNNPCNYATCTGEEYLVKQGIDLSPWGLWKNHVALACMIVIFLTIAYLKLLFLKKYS
Procedure: (§4) For functional analysis of P-gp and BCRP as efflux transporters, Matrigel-iBMECs or LN221F-iBMECs (on day 10 of differentiation) derived from 610B1 strain were tested for substrate uptake. As the substrate, rhodamine 123 or Hoechst 33342 was used. The culture medium was removed and the cells on a 96-well plate were pre-incubated in a transport buffer for 15 minutes at 37° C. Note that the number of samples was 6. The cells were incubated, in the presence or absence of 10 μM cyclosporine A (CsA), an inhibitor of P-gp, or 20 μM Ko 143, an inhibitor of BCRP, in a transport buffer containing 10 μM rhodamine 123 or 10 μM Hoechst 33342 for 60 minutes at 37° C. The cells were then washed three times with PBS and lysed in PBS containing 5 w/v % Triton X-100. The fluorescence intensities of rhodamine 123 or Hoechst 33342 were measured with a Synergy HTX multimode plate reader and analyzed by Gen5 data analysis software.

P-gp = target: T2, P-gp (Homo sapiens, UniProt P08183); assay: Substrate uptake test, P-gp function (rhodamine 123 with or without cyclosporine A); format: cell-based; conditions: 10 μM rhodamine 123, 10 μM cyclosporine A, 60 minutes at 37° C., FIG. 9
T2 construct: endogenous in cells; host or cells: Matrigel-iBMECs or LN221F-iBMECs derived from 610B1 strain (iPS cells), day 10 of differentiation
Procedure: as §4

[4] = test system: iBMECs derived from 610B1 strain; assay: Protein expression of BMEC markers by immunostaining; format: cell-based, human; conditions: CDH5, P-gp, BCRP, ZO-1, Occludin, Claudin 5; day 10 of differentiation, FIG. 8
Procedure: Matrigel-iBMECs or LN221F-iBMECs (on day 10 of differentiation) derived from 610B1 strain were analyzed by immunostaining in order to analyze the expression levels and localizations of BMEC marker proteins. For Zonula Occludens-1 (ZO-1) and Occludin, the cells on a 96-well plate were fixed in 4 w/v % paraformaldehyde for 15 minutes at room temperature, washed twice with glycine-containing PBS, and then permeabilized with 0.1 w/v % Triton X-100-containing PBS for 25 minutes at room temperature. After blocking for 20 min at room temperature with 5% donkey serum, each primary antibody was used for reaction for 2 hours at room temperature. After washed three times with PBS, the cells were reacted with the secondary antibody, which had been diluted 200-fold, for 60 minutes at room temperature. At this time, 1 μg/mL DAPI as a nuclear staining reagent was mixed in the reaction at the same time. Thereafter, the cells were washed three times with PBS, and were analyzed with an Operetta high content imaging system. […]

[5] = test system: iBMECs derived from 610B1 strain; assay: Time-course change in TEER values, 610B1 strain; format: cell-based, human; conditions: FIG. 3
Procedure: as §2, §3

[6] = test system: iBMECs derived from 648A1 strain; assay: Test for permeability of FD4 or LY, 648A1 strain; format: cell-based, human; conditions: 60 minutes, day 10 of differentiation
Procedure: as §1

[7] = test system: iBMECs derived from strain 610B1; assay: Analysis of expression levels of BMEC marker genes by RT-q PCR; format: cell-based, human; conditions: CDHS, MDR1, BCRP, ZO-1, Occludin, GLUT1, LAT1; day 10 of differentiation, corrected with HPRT1, FIG. 7
Procedure: Extraction was performed according to the attached instructions of Agencourt (registered trademark) RNAdvance Tissue Kit.
Complementary DNA (cDNA) was synthesized using ReverTra Ace (registered trademark) qPCR RT Master Mix according to the attached instructions.
The levels of gene expression in Matrigel-iBMECs or LN221F-iBMECs derived from strain 610B1 (on day 10 of differentiation) or human-derived primary BMECs (hereinafter, also referred to as “hBMECs”) were analyzed by RT-q PCR. The number of samples for Matrigel-iBMECs or LN221F-iBMECs was 3, and the number of samples for hBMECs was 1. RT-q PCR was performed with KAPA SYBR Fast qPCR Kit while using cDNA as a template according to the attached instructions. The results obtained were corrected using HPRT1 as an internal control. The relative expression levels of mRNA in LN221F-iBMECs or hBMECs were determined based on the expression levels of mRNA in Matrigel-iBMECs. […]

T2 sequence (P08183 whole entry): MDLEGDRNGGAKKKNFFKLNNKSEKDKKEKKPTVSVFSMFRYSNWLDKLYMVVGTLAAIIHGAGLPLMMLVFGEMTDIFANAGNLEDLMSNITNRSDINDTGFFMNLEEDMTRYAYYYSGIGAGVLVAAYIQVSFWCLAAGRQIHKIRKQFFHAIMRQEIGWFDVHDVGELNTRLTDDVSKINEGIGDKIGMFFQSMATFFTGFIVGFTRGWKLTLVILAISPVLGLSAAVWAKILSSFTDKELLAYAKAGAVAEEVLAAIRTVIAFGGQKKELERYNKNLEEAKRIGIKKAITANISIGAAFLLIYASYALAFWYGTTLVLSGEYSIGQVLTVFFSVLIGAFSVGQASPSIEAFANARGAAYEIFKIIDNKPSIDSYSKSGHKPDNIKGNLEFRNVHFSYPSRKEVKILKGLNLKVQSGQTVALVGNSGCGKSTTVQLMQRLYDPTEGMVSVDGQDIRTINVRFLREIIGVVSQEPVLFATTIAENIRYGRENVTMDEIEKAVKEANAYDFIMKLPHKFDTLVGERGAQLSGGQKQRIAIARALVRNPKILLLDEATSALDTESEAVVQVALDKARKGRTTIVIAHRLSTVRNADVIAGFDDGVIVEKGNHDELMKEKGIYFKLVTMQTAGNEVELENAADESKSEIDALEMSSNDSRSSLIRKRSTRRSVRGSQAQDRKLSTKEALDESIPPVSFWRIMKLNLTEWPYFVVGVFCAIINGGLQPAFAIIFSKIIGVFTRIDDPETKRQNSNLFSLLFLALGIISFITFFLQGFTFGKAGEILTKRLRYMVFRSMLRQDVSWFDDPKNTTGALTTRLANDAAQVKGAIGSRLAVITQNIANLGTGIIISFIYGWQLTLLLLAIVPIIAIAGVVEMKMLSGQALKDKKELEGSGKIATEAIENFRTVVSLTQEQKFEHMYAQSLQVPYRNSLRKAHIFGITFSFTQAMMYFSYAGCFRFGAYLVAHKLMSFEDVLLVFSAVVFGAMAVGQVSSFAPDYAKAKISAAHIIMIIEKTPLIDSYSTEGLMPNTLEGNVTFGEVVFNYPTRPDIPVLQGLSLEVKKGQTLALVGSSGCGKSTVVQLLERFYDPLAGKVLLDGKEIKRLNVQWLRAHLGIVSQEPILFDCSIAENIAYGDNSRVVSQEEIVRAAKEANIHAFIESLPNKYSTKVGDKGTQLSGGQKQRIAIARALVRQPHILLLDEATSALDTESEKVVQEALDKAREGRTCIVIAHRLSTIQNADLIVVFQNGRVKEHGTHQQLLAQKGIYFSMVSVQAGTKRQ

Substance | permeability coefficient of LY compared with Matrigel-iBMECs ([1]; 300 μM LY apical, FIG. 6) | permeability coefficient of FD4 compared with Matrigel-iBMECs ([1]; 1 mg/mL FD4 apical, FIG. 5) | relative TEER value (Matrigel-iBMECs set to 1.0) ([2]; FIG. 2) | TEER value compared with iBMECs induced and differentiated on Matrigel [2] | TEER value compared with Matrigel-iBMECs over a long period of time ([3]; day 1 to day 10 after seeding) | TEER value ([3]; over a long period of time) | accumulation of substrate in the presence of the inhibitor versus absence (BCRP function) (BCRP) | accumulation of substrate in the presence of the inhibitor versus absence (P-gp function) (P-gp) | protein expression levels and localizations of BMEC markers compared with Matrigel-iBMECs [4] | TEER value compared with Matrigel-iBMECs over a long period of time ([5]; day 1 to day 10 after seeding) | TEER value ([5]; over a long period of time) | permeability coefficient of LY compared with Matrigel-iBMECs ([6]; 300 μM LY apical, FIG. 6) | permeability coefficient of FD4 compared with Matrigel-iBMECs ([6]; 1 mg/mL FD4 apical, FIG. 5) | mRNA expression level of BMEC markers compared with Matrigel-iBMECs [7]
Laminin-221 fragment [LN221F] | lower permeability coefficient | lower permeability coefficient | about 2 times | higher TEER value | higher TEER value | ≥ 1000 Ω×cm^2 | larger | larger | almost equivalent | higher TEER value | ≥ 1000 Ω×cm^2 | lower permeability coefficient | lower permeability coefficient | almost equivalent
N-terminal Vitronectin [VTN-N] |  |  |  | higher TEER value |  |  |  |  |  |  |  |  |  | 
